Assay results: US20160369258A1, “RESTRICTING NUCLEAR PROTEIN TO SPECIFIC PHASES OF THE CELL CYCLE” (UNIVERSITY OF WASHINGTON, priority 2014, published 2016)
Peptide text beside a SMILES is read from it. * marks the point of attachment. Cbz = O=C(OCc1ccccc1)*

Key:
[1] = tested on: Ramos B cells; assay: Flow cytometry of cell cycle profile and fluorescent signal; assay type: cell-based, human; settings: up to 4 hr of culture; Ramos AID-mCherry transductants
Method: To determine cell cycle distribution, cells were fixed, permeabilized with 0.5% Triton X-100, stained with DAPI (2 μg/ml) and analyzed by FACS.

[2] = tested on: AID-mCherry; assay: HCS microscopy of AID-mCherry subcellular distribution after LMB / MG132 treatment; assay type: cell-based, human; settings: for cytoplasmic AID-mCherry signal, response to treatment / nuclear AID-mCherry signal, increase relative to untreated cells: Ramos AID-mCherry transductants, LMB 50 ng/ml, MG132 50 μM; for nuclear AID-mCherry signal, increase relative to untreated cells: 0-4 hr
Method: We analyzed subcellular distribution of AID in the human B cell line, Ramos, transduced with a lentiviral construct expressing human AID fused to the mCherry fluorescent protein at the C-terminus. Ramos B cells express endogenous AID and actively diversify their Ig genes, so the pathways that regulate and respond to damage by AID are intact. Cells were analyzed by high content screening (HCS) microscopy (43), a […] approach that automatically quantifies signals per unit area (pixels) in each compartment of each cell (FIG. 1A). […] The cytoplasmic signal was unaffected by MG132 treatment, but diminished upon treatment with LMB or LMB+MG132, paralleling the increase in nuclear signal.
The human Burkitt lymphoma cell line, Ramos, was cultured in supplemented RPMI 1640 (Gibco), which contained 10% FBS, 2 mM L-glutamine, penicillin/streptomycin, 1× non-essential amino acids (Gibco), 1 mM sodium pyruvate, and 10 mM HEPES. Lentiviral transductions used 2×10^5 cells cultured in medium containing 8 μg/ml of polybrene. Following transduction, cells were cultured for 3-4 days and these recent transductants then sorted for mCherry+ to enrich for transduced cells, typically constituting 0.1-10% of the population. Cells were treated with leptomycin B (LMB; LC Laboratories) at 50 ng/ml and MG132 (Z-Leu-Leu-Leu-aldehyde; Sigma-Aldrich) at 50 μM. Viable cells were counted after trypan blue staining. Cell viability was confirmed by CellTiter-Glo® Luminescent Cell Viability Assay (Promega).
Cells were fixed in 3.7% formaldehyde at a density of 2×10^6 cells/ml and stained with whole cell stain (HCS CellMask, Invitrogen) and DAPI (0.2 μg/ml). Fixed cells were then washed, resuspended in PBS and spun down in a 96-well μclear microplate (Greiner Bio One) for imaging. Cells were imaged by Thermo Scientific ArrayScan VTI HCS reader, analyzing 3000-6000 cells in each treatment group. Cells with very low or very high mCherry signals were eliminated, gating based on the mock transduction control (low) and eliminating cells with signals more than 5 SD from the mean (high). The HCS Colocalization BioApplication protocol was used to determine nuclear and whole cell boundaries in individual cells as defined by DAPI and HCS CellMask, respectively, thereby defining the cytoplasmic region as the region between nuclear and whole cell boundaries. The average signal in the nuclear and cytoplasmic compartments was determined in individual cells by measuring the total intensity of mCherry signal divided by area within each compartment. The ratio of nuclear to cytoplasmic signal (N/C) was calculated as the ratio of the average signals of nuclear and cytoplasmic mCherry.
G1, S, and G2/M phase cells were distinguished by ranking DNA content as determined by total DAPI signal, and specific fractions of the population assigned to G1, S and G2/M phases (FIG. 16A). HCS results were expressed in terms of average signal, to ensure independence of cell size, which increases during cell cycle (FIG. 16).

| SMILES | effect of treatment on cell cycle [1] | cytoplasmic AID-mCherry signal, response to treatment [2] | nuclear AID-mCherry signal, increase relative to untreated cells [2] | drop of cytoplasmic AID-mCherry signal ([2]; all stages of cell cycle (G1, S, G2/M)) [%] | N/C ratio of AID-mCherry signal ([2]; representative cell, 0.5 hr LMB (untreated 0.80)) | effect on nuclear or cytoplasmic AID-mCherry signals ([2]; any phase of cell cycle) |
| --- | --- | --- | --- | --- | --- | --- |
| CCC(=C/[C@H](C)C/C=C/C(C)=C/[C@@H](C)C(=O)[C@@H](C)[C@H](O)[C@@H](C)C/C(C)=C/C(=O)O)/C=C/[C@@H]1OC(=O)C=C[C@@H]1C [LMB, leptomycin B] | not perturbed significantly | diminished | 1.5 fold | 50 | 1.34 |  |
| CC(C)C[C@@H](C=O)NC(=O)[C@H](CC(C)C)NC(=O)[C@H](CC(C)C)NC(=O)OCc1ccccc1 [MG132, Z-Leu-Leu-Leu-aldehyde] (Cbz-Leu-Leu-Leu-aldehyde) | not perturbed significantly | unaffected | unaffected |  |  | little effect |
